Experimental data reported in publication PMC10618793, “Investigating cannabinoids as P2X purinoreceptor 4 ligands by using surface plasmon resonance and computational docking” (Heliyon, 2023).
Values joined by “and” are separate entries in the source; they are usually repeats but may differ in a detail not shown here. Identical values can stand only once. “Also recorded” adds a separate entry of the source. Like-named read-outs stand apart in the source and are kept apart here.

Assays:
P2X4 receptor [1] = target: T1, P2X4 receptor (Homo sapiens, UniProt Q99571); assay: Surface plasmon resonance binding screening assay; details: for binding affinity with P2X4 (in words) / RU (Response Units) values compared with theoretical Rmax: SPR screening; for binding affinity with P2X4 (in words) / Kd / koff / kon: 0.4-300 μM; for Kd / koff / kon: SPR Biacore T200, P2X4 immobilized on CM5 chip, 1:1 binding model, n.d. = not detectable; for koff: read-out: Koff (dissociation rate); for kon: read-out: Kon (association rate); for association/dissociation phase with P2X4 (sensorgram, in words): SPR screening sensorgrams, Fig. 3; for RU (Response Units) values compared with theoretical Rmax: attributed to matrix binding effects
T1 construct: His tag (N); purchased MyBioSource, Inc (San Diego, CA, USA)
T1 sequence (Q99571 77-338): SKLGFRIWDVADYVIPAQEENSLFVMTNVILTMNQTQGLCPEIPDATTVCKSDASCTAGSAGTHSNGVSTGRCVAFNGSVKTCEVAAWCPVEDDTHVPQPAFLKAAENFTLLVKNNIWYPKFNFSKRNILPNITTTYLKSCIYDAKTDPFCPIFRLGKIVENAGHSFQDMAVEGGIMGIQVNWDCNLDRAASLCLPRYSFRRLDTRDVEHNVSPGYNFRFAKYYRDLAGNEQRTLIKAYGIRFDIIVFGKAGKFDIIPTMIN

P2X4 receptor [2] = target: T1, P2X4 receptor; assay: Surface plasmon resonance competitive binding assay; details: for Response Unit (RU): 5-BDBD alone, 1:1 combination, 5 or 1 μM; for type of binding on P2X4 relative to 5-BDBD: experimental 1:1 combination RU compared with theoretical RU values; for experimental binding response unit (RU): validation BX430 vs 5-BDBD, single binders at 1 μM and 1:1 combination, Fig. 4B
Description: Recombinant human P2X4 (500 μg/mL stock solution in Dnase free water) was diluted to 40 μg/mL in sodium acetate 4.0. The protein was immobilized on a CM5 chip based on an amine coupling method as previously described with minor modification. Briefly, the immobilization method involved five phases. First, a stable baseline was established, and a response was observed. […] Both binding association and dissociation were identified as ethanolamine hydrochloride (1 M; pH 8.5) deactivated unreacted NHS-esters and removed electrostatically bound ligands with a contact time of 420 s and a flow rate of 10 μL/min. Completion of all five phases indicated successful immobilization of the P2X4 protein on the SPR sensor chip.
A competitive SPR binding assay was designed to narrow down the cannabinoids’ binding site on P2X4. […] Both compounds were dissolved in DMSO at 10 mM and diluted to 10 μM in PBS (20 mM). […] Subsequently, they were diluted to a working concentration of 10 μM using PBS (20 mM) as the diluent. For individual runs, each antagonist was further diluted with the running buffer, composed of PBS (20 mM) with 3 % DMSO, resulting in a final concentration of 1 μM. To evaluate the interaction of both antagonists simultaneously, a 1:1 combination ratio was employed. Glycine, at a pH of 2.5 was utilized as the regeneration buffer. Additionally, solvent correction cycles were incorporated, consisting of eight correction points ranging from 2.5 % to 3.8 % of DMSO content, ensuring accurate data interpretation during the experimental procedure.
Compounds were initially prepared at a concentration of 10 mM in DMSO and subsequently diluted in PBS (20 mM) to either 10 or 2 μM, depending on the binding response unit (RU) observed during the binding screening assays. For individual evaluations, compounds were diluted in a 1:1 combination ratio with the running buffer, PBS (20 mM) + 3 % DMSO, to either 5 or 1 μM.
These mixtures were subsequently diluted to either 5 or 1 μM using the running buffer.
The theoretical non-competitive value was calculated as the sum of the experimental RU values of the cannabinoid and BX430, or the cannabinoid and 5-BDBD. The combined experimental RU value was compared to both the competitive and non-competitive theoretical RU values to determine the type of binding.

P2X4 = system: P2X4; parameters: method as in PMID 28588493; details: selective non-competitive (allosteric) antagonist of P2X4; cited from earlier work
human P2X4 = details: HEK293 cells expressing human P2X4; cited from earlier work
[3] = KD (equilibrium dissociation constant)
[4] = read-out: KD (equilibrium dissociation constant)

Row | SMILES | binding affinity with P2X4 (in words) (P2X4 receptor [1]) | Kd (P2X4 receptor [1]; [3]) | koff (P2X4 receptor [1]) | kon (P2X4 receptor [1]) | further results
1 | CCCCCCCc1cc(O)c2c(c1)OC(C)(C)C1CCC(C)=CC21 (stereo not drawn) [THCP, Δ^9-tetrahydrocannabiphorol] | did not demonstrate any binding affinity |  |  |  | 
2 | CCCCc1cc(O)c2c(c1)OC(C)(C)C1CCC(C)=CC21 (stereo not drawn) [THCB, Δ^9-tetrahydrocannabibutol] | did not demonstrate any binding affinity |  |  |  | 
3 | CCCc1cc(O)c2c(c1)OC(C)(C)c1ccc(C)cc1-2 [CBV, cannabivarin] |  | 16.4 µM | 0.0405 s⁻¹ | 2470 M⁻¹ s⁻¹ | association/dissociation phase with P2X4 (sensorgram, in words) (P2X4 receptor [1]): slow dissociation phase; Response Unit (RU) (P2X4 receptor [2]; Fig. 6E: CBV alone): 0.9 RU; type of binding on P2X4 relative to 5-BDBD (P2X4 receptor [2]): competitive P2X4-binders; also recorded: competitive binding
4 | C=C(C)[C@@H]1CCC(C)=C[C@H]1c1c(O)cc(CCCCC)c(C(=O)OC)c1O [CBDAME, cannabidiolic acid methyl ester] | did not demonstrate any binding affinity |  |  |  | 
5 | C=C(C)C1CCC(C)=CC1c1c(O)cc(CCCCCCC)cc1O (stereo not drawn) [CBDP, cannabidiphorol] | did not demonstrate any binding affinity |  |  |  | 
6 | CCCc1cc(O)c(C/C=C(\C)CCC=C(C)C)c(O)c1C(=O)O [CBGVA, cannabigerovarinic acid] |  |  | 0.174 s⁻¹ | 1890 M⁻¹ s⁻¹ | Kd (P2X4 receptor [1]; [4]): 92 µM; association/dissociation phase with P2X4 (sensorgram, in words) (P2X4 receptor [1]): slow association and dissociation phases; RU (Response Units) values compared with theoretical Rmax (P2X4 receptor [1]): higher than the theoretical Rmax
7 | CCCCCc1cc(O)c2c(c1)OC(C)(C)C1CCC(CO)=CC21 (stereo not drawn) [11-OH-THC] |  | 6.31 µM | 0.0742 s⁻¹ | 11800 M⁻¹ s⁻¹ | 
8 | C=C(C)C1CCC(C)=CC1c1c(O)cc(CCCC)cc1O (stereo not drawn) [CBDB, cannabidibutol] | did not demonstrate any binding affinity |  |  |  | 
9 | C=C(C)[C@@H]1CCC(C)=C[C@H]1c1c(O)cc(CCCCC)cc1O [CBD, cannabidiol] |  | 1 µM | 0.02 s⁻¹ | 19200 M⁻¹ s⁻¹ | Kd (P2X4 receptor [1]; [4]): 1.04 µM; association/dissociation phase with P2X4 (sensorgram, in words) (P2X4 receptor [1]): slow dissociation phase; Response Unit (RU) (P2X4 receptor [2]; Fig. 6A: CBD alone): 6.9 RU; type of binding on P2X4 relative to 5-BDBD (P2X4 receptor [2]): competitive P2X4-binders; also recorded: competitive binding
10 | CCCCCc1cc2c(c(O)c1C(=O)O)[C@@H]1C=C(C)CC[C@H]1C(C)(C)O2 [THCA-A, Δ^9-tetrahydrocannabinolic acid A] |  | 117 µM | 0.101 s⁻¹ | 866 M⁻¹ s⁻¹ | association/dissociation phase with P2X4 (sensorgram, in words) (P2X4 receptor [1]): slow association and dissociation phases; RU (Response Units) values compared with theoretical Rmax (P2X4 receptor [1]): higher than the theoretical Rmax
11 | C=C(C)[C@@H]1C[C@H](O)C(C)=C[C@H]1c1c(O)cc(CCCCC)cc1O [6α–OH–CBD, 6α-hydroxy cannabidiol] |  | 340 µM and > 10 µM | 0.427 s⁻¹ | 1270 M⁻¹ s⁻¹ | Kd (P2X4 receptor [1]; [4]): 337 µM; RU (Response Units) values compared with theoretical Rmax (P2X4 receptor [1]): higher than the theoretical Rmax
12 | CCCCCc1cc(O)c2c(c1)OC(C)(C)c1ccc(C)cc1-2 [CBN, cannabinol] | did not demonstrate any binding affinity |  |  |  | 
13 | CCCc1cc(O)cc(O)c1C(=O)O [Varinolic acid, varinolic acid] | did not demonstrate any binding affinity |  |  |  | 
14 | CC(C)c1cc(Br)c(NC(=O)Nc2cccnc2)c(Br)c1 [BX430, reference compound] |  |  |  |  | experimental binding response unit (RU) (P2X4 receptor [2]): 22.5 RU; IC50 (P2X4): 0.54 µM
15 | CC(C)=CCC/C(C)=C/Cc1c(O)cc(C)c(C(=O)O)c1O [CBGOA, cannabigerorcinic acid] |  | 140 µM and > 10 µM | 0.375 s⁻¹ | 2720 M⁻¹ s⁻¹ | Kd (P2X4 receptor [1]; [4]): 138 µM; RU (Response Units) values compared with theoretical Rmax (P2X4 receptor [1]): higher than the theoretical Rmax
16 | C=C(C)[C@@H]1CCC(C)=C[C@H]1c1c(O)cc(CCCCC)c(C(=O)O)c1O [CBDA, cannabidiolic acid] | did not demonstrate any binding affinity |  |  |  | 
17 | CCCCCc1cc2c(c(O)c1C(=O)O)[C@@H]1CC(C)=CC[C@H]1C(C)(C)O2 [Δ^8-THCA-A, Δ^8-trans-tetrahydrocannabinolic acid A] |  | 76 µM and 76.4 µM | 0.0812 s⁻¹ | 1060 M⁻¹ s⁻¹ | association/dissociation phase with P2X4 (sensorgram, in words) (P2X4 receptor [1]): slow association and dissociation phases; RU (Response Units) values compared with theoretical Rmax (P2X4 receptor [1]): higher than the theoretical Rmax
18 | C=C(C)[C@@H]1CCC(C)=C[C@H]1c1c(O)cc(CCC)cc1O [CBDV, cannabidivarin] |  | 9.9 µM | 0.12 s⁻¹ | 12100 M⁻¹ s⁻¹ | Kd (P2X4 receptor [1]; [4]): 9.91 µM
19 | C=C(C)c1ccc(C)cc1-c1c(O)cc(CCCCC)cc1O [CBND, cannabinodiol] |  | 84 µM | 0.128 s⁻¹ | 1520 M⁻¹ s⁻¹ | Kd (P2X4 receptor [1]; [4]): 84.2 µM; RU (Response Units) values compared with theoretical Rmax (P2X4 receptor [1]): higher than the theoretical Rmax
20 | CCCc1cc(O)c(C/C=C(\C)CCC=C(C)C)c(O)c1 [CBGV, cannabigerovarin] |  |  |  |  | association/dissociation phase with P2X4 (sensorgram, in words) (P2X4 receptor [1]): slow dissociation phase
21 | CCCCCc1cc(O)c2c(c1)OC(C)(CCC=C(C)C)C=C2 (stereo not drawn) [CBC, cannabichromene] | did not demonstrate any binding affinity |  |  |  | 
22 | CCCCCc1cc(O)c(C/C=C(\C)CCC=C(C)C)c(OC)c1 [CBGM, cannabigerol monomethyl ether] | did not demonstrate any binding affinity |  |  |  | 
23 | CCCc1cc(O)c2c(c1)OC(C)(CCC=C(C)C)C=C2 (stereo not drawn) [CBCV, cannabichromevarin] | did not demonstrate any binding affinity |  |  |  | 
24 | CCCCCc1cc(O)c2c(c1)OC1(C)CCC3C1C2C3(C)C (stereo not drawn) [CBL, cannabicyclol] | did not demonstrate any binding affinity |  |  |  | 
25 | CCCCCc1cc(O)c(C/C=C(\C)CCC=C(C)C)c(O)c1C(=O)O [CBGA, cannabigerolic acid] |  | 140 µM and > 10 µM | 0.119 s⁻¹ | 824 M⁻¹ s⁻¹ | Kd (P2X4 receptor [1]; [4]): 144 µM; association/dissociation phase with P2X4 (sensorgram, in words) (P2X4 receptor [1]): slow association and dissociation phases
26 | O=C1CN=C(c2cccc(Br)c2)c2oc3ccccc3c2N1 [5-BDBD, reference compound] |  |  |  |  | Response Unit (RU) (P2X4 receptor [2]; Fig. 6A: CBD alone): 5.8 RU; Response Unit (RU) (P2X4 receptor [2]; Fig. 6E: CBV alone): 6.4 RU; experimental binding response unit (RU) (P2X4 receptor [2]): 34.9 RU; IC50 (human P2X4): […]
27 | CCCCCc1cc(O)c(C/C=C(\C)CCC=C(C)C)c(O)c1 [CBG, cannabigerol] | did not demonstrate any binding affinity |  |  |  | 
